Numbering of substitutions follows the chain as printed. Values joined by “and” are separate entries in the source; they are usually repeats but may differ in a detail not shown here. Identical values can stand only once.
Legend:
[1] = molecular target: type II Col (collagen type II); test: peptide (5 µM) incubated with ^125I-Col before addition of S. aureus cells
[2] = molecular target: type II Col (collagen type II); test: peptide at 10 µM, inhibition of ^125I-labeled Col binding to S. aureus cells
[3] = tested on: strain of S. aureus that does not express the Col-binding MSCRAMM; test: Mouse sepsis control study, challenge with S. aureus not expressing the Col-binding MSCRAMM; format: in vivo; settings: immunized mice, challenge strain without Col-binding MSCRAMM
Description: The mortality in the M55 group was 50% compared to 30% in the BSA group.

M55 = M55 (Staphylococcus aureus, UniProt Q53654); settings: animals immunized with M55 and infected with a sub-lethal dose S. aureus
Procedure: Serum level of specific antibodies against the collagen adhesion peptide M55 was measured by an enzyme-linked immunosorbent assay (ELISA). 96-well microplates (Nunc) were coated overnight at 4° C. with 2 μg/ml of M55 peptide. Blocking was done with 0.5% ovalbumin (Sigma Chemical Co., St. Louis, MO) dissolved in 0.05 M Tris (pH 7.7). Sera, biotinylated antibodies, the ExtrAvidin-peroxidase (Sigma) were all diluted in 0.05 M Tris (pH7.4)-0.015 M NaCl. The plates were incubated overnight at 4° C. with sera, washed and incubated stepwise with biotinylated goat anti-mouse IgG antibody (Jackson Immuno Research Laboratories, Inc., West Grove, PA), ExtrAvidin-peroxidase (0.5 μg/ml; Sigma) and ABTS substrate. The A405 was measured in a Titertec Multiscan photometer (Flow Laboratories, McLean, Va.). […] OVA was used as control solid antigen.

[4] = tested on: S. aureus strain Phillips; test: Mouse sepsis model, active immunization, intravenous challenge with S. aureus expressing CBP; format: in vivo, mice
Description: Gram-positive bacteria related sepsis is on the increase. In fact between one-third and one-half of all cases of sepsis are caused by gram-positive bacteria, particularly S. aureus and S. epidermidis. In the United States, it can be estimated that over 200,000 patients will develop gram-positive related sepsis this year. […] Mice were immunized subcutaneously with either M55 or a control antigen (bovine serum albumin) and then challenged intravenously with S. aureus. Eighty-three percent (35/42) of the mice immunized with M55 survived compared to only 27% of the BSA immunized mice (12/45). This is a compilation of 3 separate studies.
Day -31: 100μg/mouse of a CBP Epitope (i.e. M17, M31, or M55) or BSA emulsified with Freund's Complete adjuvant (Difco Laboratories) as a control.
Day -18: 100μg/mouse of a CBP Epitope (ie. M17, M31, or M55) or BSA dissolved in sterile phosphate buffered saline (PBS)
Day -7: 100μg/mouse of a CBP Epitope (i.e. M17, M31, or M55) or BSA dissolved in PBS
Day 0: inoculate intravenously S. aureus strain Phillips (which expresses CBP) (Dose: 2.8×10^7 cfu/mouse)
Day 14: end of study; all surviving mice were euthanized.

αCBD(151-297) IgG [5] = test: Neutralization of the inhibitory activity of αCBD(151-297) IgG by synthetic CBD peptides; format: binding, rabbit
Procedure: The different synthetic CBD peptides described above and shown to react with the αCBD(151-297) IgG were assayed for their potential to neutralize the inhibitory activity of the antibody. The αCBD(151-297) IgG (12 μg) was preincubated with a single dose (100 μg) of each peptide in step one. The S. aureus cells were then added and the preincubation continued. Finally, the ^125I-labeled type II Col was added. Peptide CBD4 neutralized 68% of αCBD(151-297) IgG inhibitory activity, while the other peptides tested had little or no effect. […] Although other peptide sequences were more immunogenic than CBD4, the antibodies recognizing the corresponding epitopes were not inhibitory.
(§1) To further investigate the interaction between peptide CBD4 and αCBD(151-297) IgG and its affect on Col binding, a fixed concentration of the antibody was incubated with an increasing amount of peptide CBD4. […] Thus, a relatively small reduction in inhibition could be easily detected.

S. aureus = test: Inhibition of binding of 125I-labeled type II Col to S. aureus cells; set-up: species or system Staphylococcus aureus
Procedure: Purified αCBD(151-297) IgG inhibited the binding of S. aureus to ^125I-labeled Col in a dose-dependent manner.
as §1
Peptide CBD7 which reacted strongly with αCBD(151-297) IgG in the ELISA assay was also tested. […] Five μM CBD4 inhibited binding by over 50%.
To identify residues within CBD4 necessary for Col binding synthesized several smaller overlapping peptides were synthesized. A series of peptides that contained a 2 amino-terminal residues and one peptide that contained a 2 amino acid deletion at the carboxyl terminus were made. The peptides (10 μM) were assayed for their ability to inhibit the binding of ^1251I-labeled Col to S. aureus. Peptide CBD4 inhibited Col binding by 76%, whereas all peptides containing amino-terminal truncations had little activity at the concentration tested.

αCBD(151-297) IgG [6] = test: ELISA reactivity of αCBD(151-297) IgG with eight 25-amino-acid synthetic CBD peptides; format: binding, rabbit; settings: 25-amino-acid synthetic peptides as targets
Procedure: Rabbits were immunized with […] as described. Sera were also collected prior to immunization and tested for reactivity to CBD(151-297). The reactivity of the antiserum with different segments of CBD(151-297) was tested in an ELISA using a series of eight 25-amino-acid long synthetic peptides with partially overlapping sequences as targets. Purified IgG reacted strongly with peptides 2, 3, 5, 6, and 7 and weakly with peptides 1, 4, and 8. When preimmune IgG was tested with the CBD peptides, little reaction could be detected. The relative immunological reactivity of the different peptides correlated closely with their antigenic index using the algorithm of Jameson and Wolf (1988).

[7] = molecular target: type II Col (collagen type II); test: BIAcore, immobilized type II Col; Scatchard analysis or Equation 1
[8] = molecular target: type II Col (collagen type II); test: BIAcore, immobilized type II Col; three-component dissociation, the two fastest components
[9] = molecular target: type II Col (collagen type II); test: BIAcore, immobilized type II Col; three-component dissociation, the slowest component
immobilized type II Col = immobilized type II Col (Homo sapiens, UniProt P02458); test: BIAcore analysis of CBD(30-529) and mutants on immobilized type II Col; format: binding
Description: The importance of amino acid residues Asn^232 and Tyr ^33 in the MSCRAMM for Col binding was examined by creating specific mutants of CBD (30-529) and characterizing the interactions of these mutants with immobilized type II Col using the BlAcore. In the mutations made, the identified amino acid residues were replaced individually, (N^232 →A, Y^233 →A) or as a pair, (N^232 →A:Y^233→A) with alanine, a residue that is not expected to interfere with the existing secondary structure. The corresponding base changes were made using overlap extension PCR™ as described and the sequence changes confirmed experimentally. The recombinant proteins containing the mutations were purified to homogeneity by metal ion chelating chromatography.
True equilibrium was not obtained during the injection time period due to the slow dissociation rate (koff). […] The dissociation phase gives information about the koff, and this rate is independent of the number of binding sites, analyte concentration, and flow rate. […] The association phase contains the information to determine the association rate koff the interaction, but it is also influenced by the dissociation rate, the number of binding sites for each interaction, and the concentration of the analyte. Because of the complexity of this interaction and the absence of measurable equilibrium data, it was not possible to determine the binding constant (KD), apparent binding ratio (BRapp), and kon.

[10] = subcutaneous immunization, intravenous challenge, compilation of 3 separate studies

Sequence of immobilized type II Col (P02458 182-1241 limits assumed): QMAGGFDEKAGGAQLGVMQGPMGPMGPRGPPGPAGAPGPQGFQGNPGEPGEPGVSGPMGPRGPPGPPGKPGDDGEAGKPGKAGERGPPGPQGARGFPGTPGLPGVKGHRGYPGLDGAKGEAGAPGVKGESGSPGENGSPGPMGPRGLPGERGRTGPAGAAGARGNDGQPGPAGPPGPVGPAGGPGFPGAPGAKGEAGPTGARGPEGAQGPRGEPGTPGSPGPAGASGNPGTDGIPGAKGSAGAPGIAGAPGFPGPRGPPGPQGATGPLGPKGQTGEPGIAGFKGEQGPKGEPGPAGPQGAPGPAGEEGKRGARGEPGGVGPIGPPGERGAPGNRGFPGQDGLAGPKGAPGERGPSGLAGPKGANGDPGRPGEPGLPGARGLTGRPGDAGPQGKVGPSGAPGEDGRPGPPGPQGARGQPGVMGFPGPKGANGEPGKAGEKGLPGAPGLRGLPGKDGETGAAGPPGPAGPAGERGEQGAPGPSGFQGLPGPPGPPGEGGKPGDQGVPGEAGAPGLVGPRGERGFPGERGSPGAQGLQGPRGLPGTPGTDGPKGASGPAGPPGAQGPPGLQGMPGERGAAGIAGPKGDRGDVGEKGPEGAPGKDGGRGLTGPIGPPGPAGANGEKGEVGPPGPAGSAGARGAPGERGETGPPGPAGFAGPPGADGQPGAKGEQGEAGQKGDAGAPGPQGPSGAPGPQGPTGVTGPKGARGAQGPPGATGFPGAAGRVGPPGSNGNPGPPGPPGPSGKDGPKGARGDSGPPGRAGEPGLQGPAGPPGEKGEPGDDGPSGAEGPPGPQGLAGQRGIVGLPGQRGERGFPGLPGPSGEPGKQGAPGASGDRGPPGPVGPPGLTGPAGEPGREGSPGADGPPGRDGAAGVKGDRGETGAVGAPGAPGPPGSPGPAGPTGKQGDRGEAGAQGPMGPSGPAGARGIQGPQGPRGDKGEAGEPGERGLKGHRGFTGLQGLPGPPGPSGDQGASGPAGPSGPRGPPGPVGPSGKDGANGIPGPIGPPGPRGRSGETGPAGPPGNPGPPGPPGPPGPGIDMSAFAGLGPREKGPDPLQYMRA
Sequence of type II Col (collagen type II) (P02459 182-1241): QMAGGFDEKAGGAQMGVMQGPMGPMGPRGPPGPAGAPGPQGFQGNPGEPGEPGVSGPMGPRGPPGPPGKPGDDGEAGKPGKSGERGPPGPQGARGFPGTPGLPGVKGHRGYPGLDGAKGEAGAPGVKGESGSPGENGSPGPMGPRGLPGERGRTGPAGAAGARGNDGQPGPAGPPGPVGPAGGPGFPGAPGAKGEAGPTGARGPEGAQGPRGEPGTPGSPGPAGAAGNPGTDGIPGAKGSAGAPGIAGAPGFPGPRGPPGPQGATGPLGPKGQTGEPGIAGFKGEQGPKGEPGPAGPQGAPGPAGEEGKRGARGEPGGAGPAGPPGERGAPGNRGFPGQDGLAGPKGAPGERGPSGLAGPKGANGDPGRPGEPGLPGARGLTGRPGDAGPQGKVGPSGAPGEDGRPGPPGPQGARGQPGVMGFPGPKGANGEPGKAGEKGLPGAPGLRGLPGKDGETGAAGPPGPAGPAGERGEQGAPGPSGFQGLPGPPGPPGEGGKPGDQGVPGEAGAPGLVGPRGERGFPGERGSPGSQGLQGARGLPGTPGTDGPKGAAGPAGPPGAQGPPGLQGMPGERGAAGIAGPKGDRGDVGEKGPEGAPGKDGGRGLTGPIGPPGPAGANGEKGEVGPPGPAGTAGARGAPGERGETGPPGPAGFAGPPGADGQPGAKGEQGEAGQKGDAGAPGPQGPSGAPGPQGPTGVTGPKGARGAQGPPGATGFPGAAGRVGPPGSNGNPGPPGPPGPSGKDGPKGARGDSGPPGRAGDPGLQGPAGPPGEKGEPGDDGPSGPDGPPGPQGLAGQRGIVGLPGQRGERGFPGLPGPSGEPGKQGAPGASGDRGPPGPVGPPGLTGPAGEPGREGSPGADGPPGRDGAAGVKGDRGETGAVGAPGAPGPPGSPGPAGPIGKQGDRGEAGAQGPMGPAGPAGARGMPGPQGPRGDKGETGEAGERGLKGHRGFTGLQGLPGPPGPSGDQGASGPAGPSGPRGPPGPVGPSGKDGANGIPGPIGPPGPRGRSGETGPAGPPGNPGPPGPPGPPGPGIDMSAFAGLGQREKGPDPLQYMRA
Sequence of M55 (Q53654 18-529, looked up, natural form): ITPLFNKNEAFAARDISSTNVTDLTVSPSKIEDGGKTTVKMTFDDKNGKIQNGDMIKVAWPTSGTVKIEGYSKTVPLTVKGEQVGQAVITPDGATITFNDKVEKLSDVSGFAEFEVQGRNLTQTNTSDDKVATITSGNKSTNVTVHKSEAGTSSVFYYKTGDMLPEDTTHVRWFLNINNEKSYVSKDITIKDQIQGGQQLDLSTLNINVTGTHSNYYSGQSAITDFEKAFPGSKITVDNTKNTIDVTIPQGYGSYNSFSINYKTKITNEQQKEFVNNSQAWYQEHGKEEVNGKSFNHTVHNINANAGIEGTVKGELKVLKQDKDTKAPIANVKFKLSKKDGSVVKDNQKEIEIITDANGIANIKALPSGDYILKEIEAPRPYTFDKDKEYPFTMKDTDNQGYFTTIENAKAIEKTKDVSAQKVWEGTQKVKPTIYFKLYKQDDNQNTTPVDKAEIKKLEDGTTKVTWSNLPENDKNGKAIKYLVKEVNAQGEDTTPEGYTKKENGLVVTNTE

**Q.** What does the source list for “Peptide CBD4 (from UniProt Q53654 209-233)”?
**A.** percent inhibition of ^125I-Col binding to S. aureus [1]: > 50%; percent inhibition of ^125I-labeled Col binding to S. aureus [2]: 76%

**Q.** Which results are given for “M55: recombinant His-tagged S. aureus Col-binding MSCRAMM derivative, amino acids 30-531 of full length CBP (SEQ ID NO:6)”?
**A.** mortality [3]: 50%; anti-M55 IgG (Col MSCRAMM) titers (M55): 32×10^9 units/ml; mice died/total ([4]; 100μg/mouse on days -31, -18, -7, 2.8×10^7 cfu/mouse i.v. day 0, end day 14): 4/11; protection against sepsis ([4]; in words): highly effective in protecting against sepsis; percent of mice surviving [4, 10]: Eighty-three; surviving mice/total mice [4, 10]: 35/42

**Q.** Which results are given for “CBD4: 25-amino-acid synthetic peptide, amino acids 209-233 (Asp209 to Tyr233) of S. aureus CBP (DQIQGGQQLDLSTLNINVTGTHSNY)”?
**A.** effect of peptide on Col binding to S. aureus in presence of αCBD(151-297) IgG (αCBD(151-297) IgG [5]; 100 μg peptide, IgG 12 μg/ml): restored the level of Col binding to S. aureus observed in absence of αCBD(151-297) IgG; neutralization of αCBD(151-297) IgG inhibitory activity (αCBD(151-297) IgG [5]; IgG 12 μg preincubated with single dose 100 μg peptide): 68%; inhibition of 125I-Col binding to S. aureus (S. aureus; Five μM peptide incubated with 125I-Col before S. aureus): over 50%; direct inhibition of 125I-Col binding to S. aureus (S. aureus; increasing amounts of peptide preincubated with 125I-Col): inhibited in a dose-dependent manner; inhibition of binding of 125I-labeled Col to S. aureus (S. aureus; peptide 10 μM): 76%; reactivity with purified αCBD(151-297) IgG in ELISA (αCBD(151-297) IgG [6]): weakly

**Q.** How did the BRapp (apparent binding ratio) [7] turn out when “CBD (30-529) N^232→A:Y^233→A (from UniProt Q53654 30-529)” was run?
**A.** Its BRapp (apparent binding ratio) is 2 sites and 3 sites.

**Q.** “CBD (30-529), recombinant S. aureus Col MSCRAMM fragment (wild type) (from UniProt Q53654 30-529)” was tested. Which koff [8] did it give?
**A.** Its koff is greater than 0.01 s⁻¹.

**Q.** What about the koff [9] of the same molecule?
**A.** The koff was 0.0005 s⁻¹.

B1: Y^233→A (protein)
chain: ARDISSTNVTDLTVSPSKIEDGGKTTVKMTFDDKNGKIQNGDMIKVAWPTSGTVKIEGYSKTVPLTVKGEQVGQAVITPDGATITFNDKVEKLSDVSGFAEFEVQGRNLTQTNTSDDKVATITSGNKSTNVTVHKSEAGTSSVFYYKTGDMLPEDTTHVRWFLNINNEKSYVSKDITIKDQIQGGQQLDLSTLNINVTGTHSNAYSGQSAITDFEKAFPGSKITVDNTKNTIDVTIPQGYGSYNSFSINYKTKITNEQQKEFVNNSQAWYQEHGKEEVNGKSFNHTVHNINANAGIEGTVKGELKVLKQDKDTKAPIANVKFKLSKKDGSVVKDNQKEIEIITDANGIANIKALPSGDYILKEIEAPRPYTFDKDKEYPFTMKDTDNQGYFTTIENAKAIEKTKDVSAQKVWEGTQKVKPTIYFKLYKQDDNQNTTPVDKAEIKKLEDGTTKVTWSNLPENDKNGKAIKYLVKEVNAQGEDTTPEGYTKKENGLVVTNTE
**Q.** With B1 as the molecule, how does the “affinity and apparent binding ratio compared to wild type” value (immobilized type II Col) read?
**A.** Its value is “even more significant decreasesin affinity and apparent binding ratio”.

B2: double mutant (protein)
chain: B1 chain with N203A
**Q.** Which “affinity and apparent binding ratio compared to wild type” value (immobilized type II Col) does the source give for B2 here?
**A.** The value was “even more significant decreasesin affinity and apparent binding ratio”.

**Q.** What about the “apparent binding ratio (BRapp)” value (immobilized type II Col; Scatchard analysis or Equation 1) of the same molecule?
**A.** Its value is “approximately two to three high affinity sites”.
